The source made the active and inactive calls. No rule for the calls is given here.
Molecular target: Heat shock protein HSP 90-alpha (Homo sapiens) (UniProt P07900)
Test: growth inhibition of yeast carrying human Hsp90, dose response, counter-screen, plate reader, cherry-picked samples (AID 540270)
Details: yeast expressing human Hsp90, growth

SMILES	activity, negative = inhibition (at 26 µM (top of the series))	further results
O=C(CSCC(=O)N1CCCCC1)Nc1nc(-c2ccc(Cl)s2)cs1	inactive	
O=C(COc1ccc(Cl)cc1)NC1=NN(c2ccccc2)C(=O)C1	inactive	
COc1cc(N=c2ssnc2Cl)c(OC)cc1Cl	inactive	
Cc1ccc(/C=C2/NC(=O)N(Cc3ccc(Br)cc3)C2=O)o1	inactive	
Cc1ccc(N2C(=O)C3C4C=CC(CNC(=S)Nc5ccc(F)cc5)(O4)C3C2=O)cc1 (centres undefined)	inactive	
O=C(O)c1cccc(N/N=C/c2cc(Br)cc(Br)c2O)c1	inactive	
O=C(O)/C=C/c1cn(-c2ccccc2)nc1-c1cc2ccccc2o1	inactive	
Cc1ccc(N=c2ssnc2Cl)cc1	inactive	
CCCC1CCC(c2ccc(/C(N)=N/O)cc2)CC1 (centres undefined)	inactive	
Cc1ccc(O)c(NC(=S)NC(=O)c2ccc(-c3ccc(Cl)cc3)o2)c1	inactive	
NC(=O)/C=C\C(=O)Nc1cccc(C(F)(F)F)c1	inactive	
Cc1ccc(-c2cc(-c3ccc(F)cc3)c(C#N)c(N)n2)o1	inactive	
COc1ccc(C(=O)Nc2cc(C(=O)c3ccccc3)c(C)oc2=O)cc1	inactive	
O=C1/C(=C\c2ccc(Cl)cc2)CCC1CNc1ccc(Cl)cc1 (centres undefined)	inactive	
CCOc1cc(S(=O)(=O)NC2CCCCCC2)ccc1F	inactive	
O=C1CC(c2ccccc2)CC(O)=C1C=Nc1cccc(Cl)c1 (centres undefined)		AC50: 4.28 µM
O=C1S/C(=C/c2ccc(N3CCOCC3)o2)C(=O)N1Cc1c(F)cccc1Cl	inactive	

SMILES	activity, negative = inhibition (at 26 µM (top of the series))	further results
CC(C)OC(=O)c1ccc(NCc2cc(O)ccc2O)cc1Cl	inactive	
CC1(C)N=C(SCC(=O)Nc2ccc(Cl)cc2Cl)C(c2ccccc2)=N1	inactive	
Cc1ccc(N2C(=O)C3C4C=CC(CNC(=S)Nc5cccc(Cl)c5)(O4)C3C2=O)cc1 (centres undefined)	inactive	
CCOc1ccc(S(=O)(=O)NCc2ccccn2)c(C)c1C	inactive	
CN(C)c1ccc(-c2cc(O)c3ncccc3c2)cc1	inactive	
CCOC(=O)c1cc([N+](=O)[O-])cc([N+](=O)[O-])c1Sc1ncnc2nc[nH]c12	inactive	
Cc1cc(Br)c2c(c1)/C(=C/C(=O)c1cccs1)C(=O)N2	inactive	
CC(=NNC(=S)N1CC2CCC(CC2)C1)c1nccs1	inactive	
O=C1C=CC(=O)N1Cc1ccccc1	inactive	
Cc1ccc(OCc2n[nH]c(=S)n2C2CCCCC2)cc1	inactive	
Cc1csc(CNc2ncnc3ccc(-c4cccc(Cl)c4)cc23)c1	inactive	
O=C(/C(=C\c1ccccc1)c1nc2ccccc2[nH]1)c1ccc(Cl)cc1		activity, negative = inhibition (at 12 µM (top of the series)): inactive
O=C(/C(=C/c1ccc(Cl)cc1)c1nc2ccccc2[nH]1)c1ccccc1	inactive	
C[CH2][Hg][S]c1ccccc1C(=O)O		AC50: 2.31 µM
CCN(CC)c1ccc(/C=C2/SC(=O)N(C(C)C)C2=O)o1		activity, negative = inhibition (at 12 µM (top of the series)): inactive
COc1ccc(NC(=S)Nc2ccc3snnc3c2)cc1	inactive	
O=C(/C(=C/c1cccc(Cl)c1)c1nc2ccccc2[nH]1)c1ccccc1	inactive	

Source: PubChem BioAssay AID540270 (Broad Institute, 2011)
